# Tested on: HepG2 cells
# Test: Lipid uptake assay (Nile Red), in vitro liver steatosis model
# Format: cell-based
# Protocol: HepG2 cells: 5000 cells were plated in 96-well plate. The next day cells were treated with tested compounds for 4 hours and then treated with 1 mM oleic acid for additional 24 hours. Cells were then stained with Nile Red and lipid content was measured using Spectra Max i3X plate reader (Molecular Devices) and quantified with the SoftMax Pro 6 software.
smiles,measurement,setting,value
"CC(C)Oc1nc(NC(=O)CSCC(=O)O)c(Cl)cc1Cl [PD152, 2-((2-((3,5-dichloro-6-isopropoxypyridin-2-yl)amino)-2-oxoethyl)thio)acetic acid]",IC50,"Homo sapiens, compound 4 h then oleic acid 1 mM 24 h, Nile Red, read-out: IC50 for inhibition of lipid uptake",553 nM
same,Treatment concentrations at which lipid uptake was markedly inhibited,oleic acid 1 mM,> 0.2 µM

# From US20250325529A1, “INHIBITORS OF FATTY ACID BINDING PROTEINS (FABPs), METHODS OF USE AND METHODS OF MAKING” (Celloram, inc., priority 2024, published 2025)
